Reference: patent US20120107391A1, “THERAPY OF PLATINUM-RESISTANT CANCER” (Genentech, Inc., priority 2004, published 2012)
Where a name gives a salt, the structure may show the parent alone.

Tests used:
[1] = system: HRG stimulation of p180 tyrosine phosphorylation in MCF7 cells; experiment: Inhibition of HRG-stimulated p180 tyrosine phosphorylation in MCF7 cells (antiphosphotyrosine immunoblot, reflectance densitometry); format: cell-based, human; settings: MCF7, 0.2 nM rHRGβ1
Protocol: MCF7 cells were seeded in 24-well plates (1×10^5 cells/well) and grown to about 85% confluency for two days.
MCF7 cells were plated in 24-well plates and monoclonal antibodies to HER2 were added to each well and incubated for 30 minutes at room temperature; then rHRGβ1177-244 was added to each well to a final concentration of 0.2 nM, and the incubation was continued for 8 minutes. Media was carefully aspirated from each well, and reactions were stopped by the addition of 100 μl of SDS sample buffer (5% SDS, 25 mM DTT, and 25 mM Tris-HCl, pH 6.8). Each sample (25 μl) was electrophoresed on a 4-12% gradient gel (Novex) and then electrophoretically transferred to polyvinylidene difluoride membrane. Antiphosphotyrosine (4G10, from UBI, used at 1 μg/ml) immunoblots were developed, and the intensity of the predominant reactive band at Mr ˜180,000 was quantified by reflectance densitometry, as described previously (Holmes et al. Science 256:1205-1210 (1992); Sliwkowski et al. J. Biol. Chem. 269:14661-14665 (1994)).

[2] = system: MDA-MB-175 cells; experiment: Growth inhibition of MDA-MB-175 cells, crystal violet staining, 4 days; format: cell-based; settings: 10 μg/mL
Protocol: Experiment was carried out in medium containing 1% serum. HER2 antibodies or medium alone were added and the cells were incubated for 2 hours at 37° C. Subsequently rHRGβ1 (1 nM) or medium alone were added and the cells were incubated for 4 days. Monolayers were washed and stained/fixed with 0.5% crystal violet. To determine cell proliferation the absorbance was measured at 540 nm.
HER2 levels in MDA-MB-175 cells are 4-6 times higher than the level found in normal breast epithelial cells and the HER2-HER4 receptor is constitutively tyrosine phosphorylated in MDA-MB-175 cells. […] Inhibition of cell proliferation by 4D5 is dependent on the HER2 expression level (Lewis et al. Cancer Immunol. Immunother. 37:255-263 (1993)). […] However this effect could be overcome by exogenous HRG.

[3] = system: SK-BR-3 cells; experiment: Growth inhibition of SK-BR-3 cells, crystal violet staining, 4 days, with or without rHRGβ1; format: cell-based, human; settings: FIG. 4B
[4] = system: mitogen-activated protein kinase (MAPK) activation in MCF7 cells; experiment: EGF, TGF-α or HRG mediated activation of MAPK in MCF7 cells (Western blot); format: cell-based, human; settings: 200 nM antibody, 1 nM EGF, 1 nM TGF-α or 0.2 nM HRG
Protocol: Many growth factor receptors signal through the mitogen-activated protein kinase (MAPK) pathway. These dual specificity kinases are one of the key endpoints in signal transduction pathways that ultimately triggers cancer cells to divide. […] MCF7 cells (10^5 cells/well) were plated in serum containing media in 12-well cell culture plates. The next day, the cell media was removed and fresh media containing 0.1% serum was added to each well. This procedure was then repeated the following day and prior to assay the media was replaced with serum-free binding buffer (Jones et al. J. Biol. Chem. 273:11667-74 (1998); and Schaefer et al. J. Biol. Chem. 274:859-66 (1999)). […] Cells were then treated with 1 nM EGF, 1 nM TGF-α or 0.2 nM HRG for 15 minutes. The reaction was stopped by aspirating the cell medium and then adding 0.2 mL SDS-PAGE sample buffer containing 1% DTT. MAPK activation was assessed by Western blotting using an anti-active MAPK antibody (Promega) as described previously (Jones et al. J. Biol. Chem. 273:11667-74 (1998)).

[5] = system: Akt activation in MCF7 breast cancer cells; settings: cited from earlier work
[6] = system: platinum-resistant ovarian cancer; settings: patients with platinum-resistant disease; cited from earlier work
[7] = cited from earlier work
[8] = system: advanced ovarian cancer; settings: one of 3 subjects with advanced ovarian cancer; cited from earlier work

Compound: 2C4: Murine monoclonal antibody binding the extracellular domain of HER2, ATCC HB-12697 [Mutant 2C4]
- generation of HRG-induced tyrosine phosphorylation signal at Mr 180,000 [1]: significantly inhibited
- growth inhibitory effect on MDA-MB-175 cells [2]: strong growth inhibitory effect
- inhibitory effect on HER2 overexpressing cell line SK-BR-3 [3]: no inhibitory effect
- block of EGF, TGF-α and HRG mediated activation of MAPK [4]: significantly blocks
- basal level of Akt activation ([5]; MCF7, absence of heregulin addition): further reduced
- heregulin-mediated Akt activation ([5]; MCF7, Agus et al. 2002): inhibits

Compound: Nc1ccn([C@@H]2O[C@H](CO)[C@@H](O)C2(F)F)c(=O)n1 [Gemcitabine, 2′-deoxy-2′,2′-difluorocytidine monohydrochloride (b-isomer)]
- partial response rate [6]: 16%
- toxicity when combined with other chemotherapeutic agents ([7]; combined with taxanes, anthracyclines, platinums): without any significant increases or unexpected toxicities
- combined incidence of nausea and vomiting ([7]; single agent): 69%
- incidence of anemia ([7]; single agent): 68%
- incidence of diarrhea ([7]; single agent): 19%
- incidence of neutropenia ([7]; single agent): 63%
- incidence of rash ([7]; single agent): 30%
- nausea and vomiting, grade III incidence ([7]; single agent): 13%
- nausea and vomiting, grade IV incidence ([7]; single agent): 1%
- rash, grade III incidence ([7]; single agent): 1%

Compound: CC[C@@]1(O)C(=O)OCc2c1cc1n(c2=O)Cc2cc3c(CN(C)C)c(O)ccc3nc2-1 [Topotecan]
- partial response rate [6]: 6%

Compound: Pertuzumab: Antibody with light and heavy chain SEQ ID NOS. 16 and 17; humanized version 574 variable domains with human IgG1 constant region
- response [8]: durable partial response
